{"source": "patent US6376429B1", "about": "“Benzoylcyclohexanediones, process for their preparation and their use as herbicides and plant growth regulators” (Hoechst Schering AgrEvo GmbH, priority 1998, dated 2002)", "tested_on": "Sinapis arvensis", "assay": "Weed action preemergence", "type": "in vivo", "conditions": "dose of 1 kg of active substance or less per hectare, visual assessment after 3 to 4 weeks vs untreated controls", "text": "Seeds of mono- and dicotyledonous weed plants are put into sandy loam soil in cardboard pots and covered with soil. The compounds according to the invention in the form of wettable powders or emulsion concentrates are then applied to the surface of the covering soil as an aqueous suspension or emulsion with a water application rate of 600 to 800 l/ha after conversion in a dose of 1 kg of active substance or less per hectare after conversion. After the treatment, the pots are placed in a greenhouse and kept under good growth conditions for the weeds. The visual assessment of the plants or emergence damage is carried out after the emergence of the test plants after a test period of 3 to 4 weeks in comparison with untreated controls. In this case, for example, the compounds of Example Nos. 5, 33 and 19 show an at least 80% action against Stellaria media, Lolium multiflorum and Amaranthus retroflexus. The compounds of Example Nos. 2 and 8 show an at least 90% action against Amaranthus retroflexus, Stellaria media and Setaria viridis. The compounds of Example Nos. 2 and 18 show a 100% action against Amaranthus retroflexus and Sinapis arvensis."}
{"smiles": "CS(=O)(=O)c1ccc(C(=O)C2C(=O)CCCC2=O)c(Cl)c1COc1ccccc1", "note": "[Example 2, 2-(2-chloro-4-methylsulfonyl-3-phenoxymethylbenzoyl)cyclohexane-1,3-dione]", "values": [{"measurement": "action against Sinapis arvensis", "value": 100, "unit": "%"}]}
